Data from PubChem BioAssay AID2060363 (Molecular Pharmacology Branch, DTP, NCI, 2025).
Where “and” joins values, the source holds several entries; their conditions need not be identical. Identical values can stand only once.

Tested on: 156681-154-R-J1-PDC tumor spheroids, viability % test/control
Test: Anticancer human tumor 156681-154-R-J1-PDC patient-derived melanoma cell line growth inhibition [TAK]
Conditions: spheroids with HUVEC and MSC; for viability, T/C: stronger effect = lower value
Excerpt: Combinatorial screen of targeted agents with TAK-243 and ipatasertib in multi-cell type tumor spheroids
A high-throughput screen of multi-cell type tumor spheroids was designed to identify active combinations of targeted small molecules and TAK-243 or ipatasertib. Complex spheroids include a stromal component modeled by human endothelial cells (HUVEC) and fibroblasts modeled by human mesenchymal stem cells (MSCs). The concentration ranges selected for each drug and investigational agent were based upon clinically achievable concentrations if the clinical Cmax of the agent was known.
Compounds. The drugs and investigational agents: TAK-243 (785004), ipatasertib (767898), everolimus (733504), selumetinib (741078), bortezomib (756655), trametinib (758246), ixazomib (758254), vemurafenib (761431), dabrafenib (764134), sapanisertib (764658), alpelisib (765974), and copanlisib (816437), were obtained from the National Cancer Institute (NCI) Developmental Therapeutics Program Chemical Repository. The FDA-approved anticancer drug set is available from the NCI Developmental Therapeutics Program. […] The stock solutions were prepared in dimethyl sulfoxide (DMSO, Sigma-Aldrich, St. Louis, MO, cat. D2650) at 800-fold the tested concentration and stored at -70 degrees C prior to their use. All drugs and investigational agents were tested over a range starting from a high concentration at or near the clinical Cmax and decreasing in half-log increments. If the clinical Cmax for an agent had not been determined, the highest concentration tested was 10 microM.
NCI60 Cell Culture. NCI60 cell lines were obtained from the NCI Developmental Therapeutics Program Tumor Repository. For each lot of cells, the Repository performed Applied Biosystems AmpFLSTR Identifiler testing with PCR amplification to confirm consistency with the published Identifier STR profile for each cell line. Cells were kept in continuous culture for no more than 20 passages. The optimal seeding densities for each of the cell lines at each time point assessed were determined prior to performing the concentration response studies. Briefly, the NCI60 human tumor lines were grown as monolayers in RPMI 1640 medium supplemented with 10% FBS and 2 mmol/L L-glutamine.
An additional 2 lines were from the NCI60 cell line panel including melanomas, MALME-3M and SK-MEL-2. Pooled donor human umbilical vein endothelial cells (HUVEC, Lonza, cat. CC-2519) and human mesenchymal stem cells (hMSC, Lonza, cat. PT-2501) were purchased from Lonza (Walkersville, MD).
PDMR cell lines were grown in complete medium (DC medium): Dulbecco's modified Eagle's medium (DMEM)/F12 supplemented with 5% fetal bovine serum (FBS), 2 mM L-glutamine, 100 U/mL penicillin and 100 µg/ml streptomycin, 0.4 µg/ml hydrocortisone, 10 ng/ml epidermal growth factor (EGF) recombinant human protein, 24 µg/mL adenine, and 0.1 mg/mL primocin. During culture from frozen stock vials, PDMR cells were cultured in the same medium containing 10 µM Y-27632 (see Table 3). The PDCs were cultured in complete DMEM/F12 media without 10 microM Y-27632 dihydrochloride for at least two passages prior to the screen. The pooled donor HUVEC and hMSC were cultured in endothelial cell growth medium 2 (PromoCell, Heidelberg, Germany, cat. C-22011) and mesenchymal stem cell growth medium 2 (PromoCell, cat. C-28009), respectively. For all experiments, HUVEC and hMSC were used at passages </=5.
For the pre-screen, cell seeding densities were determined from a titration spanning the range from 5,000 to 313 cells per well. The mct-spheroids including 60% malignant cells, 25% HUVEC and 15% MSC dispensed as a mixture into U-bottom Ultra-Low Attachment 384-well plates (Corning, NY)
High-throughput Drug Combination Screening.
Prior to their inoculation into 384-well plates, malignant cells, HUVEC, and hMSC were removed from T flasks using TrypLE express (Thermo Fisher Scientific, cat. 12605036) and harvested by centrifugation for 5 min at 233 x g. […]
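Further: spheroids exposed to compounds for 7 days before the endpoint.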

SMILES	IC50 (curve of compound)	viability, T/C (compound 0.0316 µM)	viability, T/C (compound 0.1 µM)	viability, T/C (compound 0.316 µM)	viability, T/C (compound 1 µM)	viability, T/C (compound 0.000316 µM)	viability, T/C (compound 0.001 µM)	viability, T/C (compound 0.00316 µM)	viability, T/C (compound 0.01 µM)	further results
CC(=O)Nc1cccc(-n2c(=O)n(C3CC3)c(=O)c3c(Nc4ccc(I)cc4F)n(C)c(=O)c(C)c32)c1	0.0053 µM and 0.00435 µM	–	–	–	–	–	–	–	–	viability, T/C (compound 94.9 pM): 102% and 101%; viability, T/C (compound 0.0003 µM): 105% and 111%; viability, T/C (compound 0.000949 µM): 100% and 102%; viability, T/C (compound 0.003 µM): 83.8% and 66.8%; viability, T/C (compound 0.00949 µM): 15.5% and 14.8%; viability, T/C (compound 0.03 µM): 8.87% and 8.9%
CC(C)(C)c1nc(-c2cccc(NS(=O)(=O)c3c(F)cccc3F)c2F)c(-c2ccnc(N)n2)s1	0.264 µM and 0.243 µM	106% and 91.4%	95.8% and 92.3%	41.5% and 37.8%	17.2% and 17.8%	–	–	–	–	viability, T/C (compound 3.16 µM): 14.4% and 14.5%; viability, T/C (compound 10 µM): 18%
CC(C)CC(NC(=O)C(Cc1ccccc1)NC(=O)c1cnccn1)B(O)O (stereo not given)	0.00255 µM and 0.00205 µM	–	–	–	–	98.8% and 103%	94.7% and 103%	39.8% and 19.6%	0.36% and 0.32%	viability, T/C (compound 31.6 pM): 91.3% and 98.6%; viability, T/C (compound 0.0001 µM): 90.4% and 95.9%
CC(C)CC(NC(=O)CNC(=O)c1cc(Cl)ccc1Cl)B1OC(=O)CC(CC(=O)O)(C(=O)O)O1 (stereo not given)	0.0197 µM and 0.0179 µM	18.1% and 10.3%	0.44% and 0.46%	–	–	104% and 94.9%	101% and 104%	99.5% and 101%	95.7% and 90.9%	–
CC(C)NCC(C(=O)N1CCN(c2ncnc3c2C(C)CC3O)CC1)c1ccc(Cl)cc1 (stereo not given)	–	–	–	–	–	–	–	–	–	viability, T/C (compound 0.3 µM): 99.2% [middle of 10 runs]; viability, T/C (compound 0.949 µM): 91.1% [middle of 10 runs]; viability, T/C (compound 3 µM): 70.3% [middle of 10 runs]; viability, T/C (compound 9.49 µM): 41.4% [middle of 10 runs]; viability, T/C (compound 30 µM): 19.1% [middle of 10 runs]; IC50 (compound alone, run of 02/20/2020): 6.66 µM [middle of 10 runs]
CC(C)n1nc(-c2ccc3oc(N)nc3c2)c2c(N)ncnc21	0.0339 µM and 0.0433 µM	48% and 56.1%	33.3% and 34.1%	–	–	97.2% and 94.8%	95.3% and 91.7%	81.4% and 96.3%	80.2% and 86.3%	–
CCCS(=O)(=O)Nc1ccc(F)c(C(=O)c2c[nH]c3ncc(-c4ccc(Cl)cc4)cc23)c1F	–	–	–	115% and 97.9%	107% and 92.3%	–	–	–	–	viability, T/C (compound 3.16 µM): 106% and 99.3%; viability, T/C (compound 10 µM): 12.5% and 20.2%; viability, T/C (compound 31.6 µM): 103% and 16.7%; viability, T/C (compound 100 µM): 83.9% and 100%
COC1CC2CCC(C)C(O)(O2)C(=O)C(=O)N2CCCCC2C(=O)OC(C(C)CC2CCC(OCCO)C(OC)C2)CC(=O)C(C)C=C(C)C(O)C(OC)C(=O)C(C)CC(C)C=CC=CC=C1C (stereo not given)	0.0929 µM and > 0.1 µM	62.3% and 59.9%	46% and 51.8%	–	–	98.5% and 87%	81.8% and 87.3%	70% and 71.2%	59.4% and 64.1%	–
COc1c(OCCCN2CCOCC2)ccc2c3n(c(=NC(=O)c4cnc(N)nc4)nc12)CCN3	0.0673 µM and 0.067 µM	67.9% and 77.9%	41.9% and 35.2%	13.5% and 10.8%	2.91% and 1.78%	–	–	101% and 102%	91.1% and 89.1%	–
Cc1nc(NC(=O)N2CCCC2C(N)=O)sc1-c1ccnc(C(C)(C)C(F)(F)F)c1 (stereo not given)	> 10 µM	97.2% and 99.7%	94.9% and 98.4%	86.1% and 86.6%	86.8% and 74.4%	–	–	–	–	viability, T/C (compound 3.16 µM): 67.9% and 64.5%; viability, T/C (compound 10 µM): 52.8% and 56.2%
Cn1cnc2c(F)c(Nc3ccc(Br)cc3Cl)c(C(=O)NOCCO)cc21	0.782 µM and 0.685 µM	–	–	–	–	–	–	–	–	viability, T/C (compound 0.00949 µM): 95.4% and 99.5%; viability, T/C (compound 0.03 µM): 92.4% and 89.7%; viability, T/C (compound 0.0949 µM): 97.8% and 89.7%; viability, T/C (compound 0.3 µM): 93.4% and 95.4%; viability, T/C (compound 0.949 µM): 41.3% and 32.8%; viability, T/C (compound 3 µM): 13% and 12.3%
